Values joined by “and” are separate entries in the source; they are usually repeats but may differ in a detail not shown here. Equal values may be shown once.
Tested on: NCI-H23 complex spheroids with HUVEC/MSC, viability
Assay: Anticancer human tumor NCI-H23 cell line growth inhibition [RAS];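 also: spheroids exposed to compound for 7 days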;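 as to viability, T/C: 100% = DMSO vehicle control viability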
Conditions: for viability, T/C: stronger effect = lower value
Outline: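 Tumour cells grown as complex spheroids with HUVEC endothelial cells and mesenchymal stem cells, treated with RAS pathway inhibitor combinations. Each agent spans half-log steps from near clinical Cmax, or 10 microM where Cmax is unknown.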

[1] = curve of first compound, second compound 0.000949 µM
[2] = curve of first compound, second compound 0.003 µM
[3] = curve of first compound, second compound 0.00949 µM
[4] = curve of first compound, second compound 0.03 µM
[5] = curve of first compound, second compound 0.0949 µM
[6] = curve of first compound, second compound 0.3 µM
[7] = second compound 0.000949 µM, first compound 0.0316 µM
[8] = second compound 0.000949 µM, first compound 0.1 µM
[9] = second compound 0.000949 µM, first compound 0.316 µM
[10] = second compound 0.000949 µM, first compound 1 µM
[11] = second compound 0.000949 µM, first compound 3.16 µM
[12] = second compound 0.000949 µM, first compound 10 µM
[13] = second compound 0.003 µM, first compound 0.0316 µM
[14] = second compound 0.003 µM, first compound 0.1 µM
[15] = second compound 0.003 µM, first compound 0.316 µM
[16] = second compound 0.003 µM, first compound 1 µM
[17] = second compound 0.003 µM, first compound 3.16 µM
[18] = second compound 0.003 µM, first compound 10 µM
[19] = second compound 0.00949 µM, first compound 0.0316 µM
[20] = second compound 0.00949 µM, first compound 0.1 µM
[21] = second compound 0.00949 µM, first compound 0.316 µM
[22] = second compound 0.00949 µM, first compound 1 µM
[23] = second compound 0.00949 µM, first compound 3.16 µM
[24] = second compound 0.00949 µM, first compound 10 µM
[25] = second compound 0.03 µM, first compound 0.0316 µM
[26] = second compound 0.03 µM, first compound 0.1 µM
[27] = second compound 0.03 µM, first compound 0.316 µM
[28] = second compound 0.03 µM, first compound 1 µM
[29] = second compound 0.03 µM, first compound 3.16 µM
[30] = second compound 0.03 µM, first compound 10 µM
[31] = second compound 0.0949 µM, first compound 0.0316 µM
[32] = second compound 0.0949 µM, first compound 0.1 µM
[33] = second compound 0.0949 µM, first compound 0.316 µM
[34] = second compound 0.0949 µM, first compound 1 µM
[35] = second compound 0.0949 µM, first compound 3.16 µM
[36] = second compound 0.0949 µM, first compound 10 µM
[37] = second compound 0.3 µM, first compound 0.0316 µM
[38] = second compound 0.3 µM, first compound 0.1 µM
[39] = second compound 0.3 µM, first compound 0.316 µM
[40] = second compound 0.3 µM, first compound 1 µM
[41] = second compound 0.3 µM, first compound 3.16 µM
[42] = second compound 0.3 µM, first compound 10 µM

Work on CC(C)NCC(C(=O)N1CCN(c2ncnc3c2C(C)CC3O)CC1)c1ccc(Cl)cc1 (configuration not stated) + CCn1c(-c2cccnc2C(C)OC)c2c3cc(ccc31)N1CCOC(CC(NC(=O)C(C(C)C)N(C)C(=O)C3(F)CCN(C(=O)C#CC(C)(C)N(C)C)CC3)C(=O)N3CCCC(N3)C(=O)OCC(C)(C)C2)C1 yielded an IC50 [1] of less than 0.0316 µM, an IC50 [2] of less than 0.0316 µM and an IC50 [3] of less than 0.0316 µM. The IC50 [4] was less than 0.0316 µM, the IC50 [5] was less than 0.0316 µM and the IC50 [6] was less than 0.0316 µM. For the same compound, the viability, T/C [7] was 33.6%, the viability, T/C [8] was 35.1% and the viability, T/C [9] was 23.7%. For the same compound, the viability, T/C [10] was 23.4%, the viability, T/C [11] was 17.5% and the viability, T/C [12] was 11.6%. The viability, T/C [13] was 33.8%, the viability, T/C [14] was 27.3% and the viability, T/C [15] was 22%. For the same compound, the viability, T/C [16] was 18.7%, the viability, T/C [17] was 18.1% and the viability, T/C [18] was 10.3%. The viability, T/C [19] was 28.9%, the viability, T/C [20] was 24.2% and the viability, T/C [21] was 25.3%. It also gave a viability, T/C [22] of 19.6%, a viability, T/C [23] of 14.9% and a viability, T/C [24] of 12.3%. The viability, T/C [25] was 30.9%, the viability, T/C [26] was 25.3% and the viability, T/C [27] was 25.2%. For the same compound, the viability, T/C [28] was 20.4%, the viability, T/C [29] was 13.8% and the viability, T/C [30] was 12.3%. The viability, T/C [31] was 24.3%, the viability, T/C [32] was 26.8% and the viability, T/C [33] was 22.6%. For the same compound, the viability, T/C [34] was 19.6%, the viability, T/C [35] was 13.3% and the viability, T/C [36] was 12.5%. It also gave a viability, T/C [37] of 21.4%, a viability, T/C [38] of 23.2% and a viability, T/C [39] of 22%. The viability, T/C [40] was 16.6%, the viability, T/C [41] was 11.6% and the viability, T/C [42] was 13.5%.
With CC(=O)OC12COC1CC(O)C1(C)C(=O)C(O)C3=C(C)C(OC(=O)C(O)C(NC(=O)OC(C)(C)C)c4ccccc4)CC(O)(C(OC(=O)c4ccccc4)C21)C3(C)C (configuration not stated) + CCn1c(-c2cccnc2C(C)OC)c2c3cc(ccc31)N1CCOC(CC(NC(=O)C(C(C)C)N(C)C(=O)C3(F)CCN(C(=O)C#CC(C)(C)N(C)C)CC3)C(=O)N3CCCC(N3)C(=O)OCC(C)(C)C2)C1 the IC50 [1] was less than 0.0316 µM, the IC50 [2] was less than 0.0316 µM and the IC50 [3] was less than 0.0316 µM. It also gave an IC50 [4] of less than 0.0316 µM, an IC50 [5] of less than 0.0316 µM and an IC50 [6] of less than 0.0316 µM. For the same compound, the viability, T/C [7] was 10.4%, the viability, T/C [8] was 12.4% and the viability, T/C [9] was 9.29%. For the same compound, the viability, T/C [10] was 12.5%, the viability, T/C [11] was 17.6% and the viability, T/C [12] was 17.5%. It also gave a viability, T/C [13] of 11.3%, a viability, T/C [14] of 10.6% and a viability, T/C [15] of 10.2%. It also gave a viability, T/C [16] of 11.5%, a viability, T/C [17] of 17% and a viability, T/C [18] of 14.2%. For the same compound, the viability, T/C [19] was 9.65%, the viability, T/C [20] was 8.65% and the viability, T/C [21] was 11.5%. For the same compound, the viability, T/C [22] was 11%, the viability, T/C [23] was 12.8% and the viability, T/C [24] was 15.8%. It also gave a viability, T/C [25] of 9.84%, a viability, T/C [26] of 8.29% and a viability, T/C [27] of 10.2%. For the same compound, the viability, T/C [28] was 9.41%, the viability, T/C [29] was 11.5% and the viability, T/C [30] was 16.5%. For the same compound, the viability, T/C [31] was 8.35%, the viability, T/C [32] was 8.9% and the viability, T/C [33] was 8.97%. For the same compound, the viability, T/C [34] was 9.36%, the viability, T/C [35] was 9.42% and the viability, T/C [36] was 16.1%. It also gave a viability, T/C [37] of 6.76%, a viability, T/C [38] of 6.43% and a viability, T/C [39] of 7.66%. For the same compound, the viability, T/C [40] was 8.04%, the viability, T/C [41] was 9.25% and the viability, T/C [42] was 12.2%.
For CC(C)n1nc(-c2ccc3oc(N)nc3c2)c2c(N)ncnc21, the viability, T/C (compound 0.000316 µM) was 102% and 105% (2×) and 106%, the viability, T/C (compound 0.00316 µM) was 88.6% [middle of 4 runs] and the viability, T/C (compound 0.01 µM) was 83% [middle of 4 runs]. The viability, T/C (compound 0.0316 µM) was 61.7% [middle of 4 runs], the viability, T/C (compound 0.1 µM) was 53.8% [middle of 4 runs] and the IC50 (curve of compound) was 0.0831 µM and > 0.1 µM and 0.067 µM.
For O=C(c1ccc(F)c(F)c1Nc1ccc(I)cc1F)N1CC(O)([C@@H]2CCCCN2)C1, the viability, T/C (compound 0.0316 µM) was 68.2% [middle of 4 runs], the viability, T/C (compound 0.1 µM) was 46.3% [middle of 4 runs] and the viability, T/C (compound 0.316 µM) was 34.2% [middle of 4 runs]. The viability, T/C (compound 1 µM) was 19.7% [middle of 4 runs] and the IC50 (curve of compound) was 78.2 nM [middle of 4 runs].
Compound CCC(CC)c1cc(NC2CCC(N)C2)n2nccc2n1 (configuration not stated) + C=CC(=O)N1CCN(c2nc(OCC3CCCN3C)nc3c(F)c(-c4nc(N)cc(C)c4C(F)(F)F)c(Cl)cc23)C(C)C1 has an IC50 (curve of first compound, second compound 0.00316 µM) of 1.01 µM, an IC50 (curve of first compound, second compound 0.01 µM) of 0.557 µM and an IC50 (curve of first compound, second compound 0.0316 µM) of less than 0.0316 µM. The IC50 (curve of first compound, second compound 0.1 µM) was less than 0.0316 µM, the IC50 (curve of first compound, second compound 0.316 µM) was less than 0.0316 µM and the IC50 (curve of first compound, second compound 1 µM) was less than 0.0316 µM. It also gave a viability, T/C (second compound 0.00316 µM, first compound 0.0316 µM) of 64.8%, a viability, T/C (second compound 0.00316 µM, first compound 0.1 µM) of 75.2% and a viability, T/C (second compound 0.00316 µM, first compound 0.316 µM) of 57.1%. It also gave a viability, T/C (second compound 0.00316 µM, first compound 1 µM) of 51.4%, a viability, T/C (second compound 0.00316 µM, first compound 3.16 µM) of 5.05% and a viability, T/C (second compound 0.00316 µM, first compound 10 µM) of 0.45%. The viability, T/C (second compound 0.01 µM, first compound 0.0316 µM) was 52.7%, the viability, T/C (second compound 0.01 µM, first compound 0.1 µM) was 62.7% and the viability, T/C (second compound 0.01 µM, first compound 0.316 µM) was 55.2%. The viability, T/C (second compound 0.01 µM, first compound 1 µM) was 43.2%, the viability, T/C (second compound 0.01 µM, first compound 3.16 µM) was 4.13% and the viability, T/C (second compound 0.01 µM, first compound 10 µM) was 0.6%. It also gave a viability, T/C (second compound 0.0316 µM, first compound 0.0316 µM) of 44.7%, a viability, T/C (second compound 0.0316 µM, first compound 0.1 µM) of 47.1% and a viability, T/C (second compound 0.0316 µM, first compound 0.316 µM) of 42.9%. It also gave a viability, T/C (second compound 0.0316 µM, first compound 1 µM) of 36.5%, a viability, T/C (second compound 0.0316 µM, first compound 3.16 µM) of 3.39% and a viability, T/C (second compound 0.0316 µM, first compound 10 µM) of 0.5%. The viability, T/C (second compound 0.1 µM, first compound 0.0316 µM) was 39.3%, the viability, T/C (second compound 0.1 µM, first compound 0.1 µM) was 50.3% and the viability, T/C (second compound 0.1 µM, first compound 0.316 µM) was 38.7%. For the same compound, the viability, T/C (second compound 0.1 µM, first compound 1 µM) was 36.5%, the viability, T/C (second compound 0.1 µM, first compound 3.16 µM) was 2.7% and the viability, T/C (second compound 0.1 µM, first compound 10 µM) was 0.48%. The viability, T/C (second compound 0.316 µM, first compound 0.0316 µM) was 36.2%, the viability, T/C (second compound 0.316 µM, first compound 0.1 µM) was 37.8% and the viability, T/C (second compound 0.316 µM, first compound 0.316 µM) was 39.9%. For the same compound, the viability, T/C (second compound 0.316 µM, first compound 1 µM) was 36.7%, the viability, T/C (second compound 0.316 µM, first compound 3.16 µM) was 4.1% and the viability, T/C (second compound 0.316 µM, first compound 10 µM) was 0.41%. For the same compound, the viability, T/C (second compound 1 µM, first compound 0.0316 µM) was 34.6%, the viability, T/C (second compound 1 µM, first compound 0.1 µM) was 42.8% and the viability, T/C (second compound 1 µM, first compound 0.316 µM) was 41.1%. It also gave a viability, T/C (second compound 1 µM, first compound 1 µM) of 38.5%, a viability, T/C (second compound 1 µM, first compound 3.16 µM) of 4.68% and a viability, T/C (second compound 1 µM, first compound 10 µM) of 0.53%.

— PubChem BioAssay AID2060885 (Molecular Pharmacology Branch, DTP, NCI, 2025)
